Laboratory results: PMC10799085, “A miniaturized mode-of-action profiling platform enables high throughput characterization of the molecular and cellular dynamics of EZH2 inhibition” (Scientific Reports, 2024)
Several values for one entry are separate records, joined by “and”; a condition that tells them apart may be missing. Equal values may be shown once. Read-outs that look alike come from different tables or passages of the source.

Columns and labels:
[1] = tested on: H3K27me3 mark in MDA-MB-231 cells; assay: High content analysis (HCA) of cellular H3K27me3 mark, washout format; assay type: cell-based; conditions: for AUC (a.u.): HCA H3K27 methylation washout pIC50 AUC over all incubation/washout times; for IC50: Homo sapiens
Method: In the low- and high-signal control wells, test compounds were replaced by 10 µM of EZH2 inhibitor (equal to unlabeled probe from ePCA and kPCA) or DMSO, respectively. […] After fixation, the cells were washed with PBS and incubated with 1% BSA blocking solution at RT for 1 h. Blocking solution was discarded, primary monoclonal antibody rabbit Tri-methyl-histone H3K27 (C36B11, Cell signaling) diluted 1:200 in blocking solution was added and incubated overnight at 4 °C. […] Afterwards, cells were washed three times with PBS and incubated at 4 °C until measuring. Fluorescence signals were captured by an Opera Phenix™ High Content Screening (HCA) system (Perkin Elmer) by 10× magnification. […] Microscopy images were initially visualized and preprocessed with MetaXpress High Content Image Acquisition & Analysis Software (Molecular Devices) as previously described. Raw data import, normalization, quality control and fitting curves for IC50 determination of tested compounds were done with Genedata Screener® for high-content screening. Wells with no recognizable signals were masked and the average intensity of the trimethylation signal was normalized to the DMSO control (0%).

[2] = tested on: KARPAS-422 cells; assay: Cellular proliferation assay (AlamarBlue, 144 h); assay type: cell-based; conditions: Homo sapiens; KARPAS-422 cells, 6-day (144 h), AlamarBlue; read-out: KARPAS (6-day) Anti-proliferation IC50
Method: Cell viability was determined by means of the AlamarBlue® reagent (Thermo Fisher Scientific) following instructions from the manufacturer. […] Anti-proliferative IC50s were calculated by fitting the normalized AlamarBlue® fluorescence values to a 4-parameter logistic equation using the Electronic Notebook (ELN) software from IDBS.

[3] = in vitro; assay type: in vitro ADME; conditions: human, Caco-2, pH 7.2, 2 µM, 2 h, 37 °C; for Papp A→B at 2 h, 2 µM: apical to basolateral, read-out: PK Caco-2 Flux Papp A-B (mean); for Papp B→A at 2 h, 2 µM: basolateral to apical, read-out: PK Caco-2 Flux Papp B-A (mean)
Method: Cells were kept at 37 °C in a humidified 5% CO2 atmosphere. Before the permeation assay was run, the culture medium was replaced by an FCS-free HEPES carbonate transport buffer (pH 7.2). For assessment of monolayer integrity, the transepithelial electrical resistance was measured. Test compounds were pre-dissolved in DMSO and added either to the apical or basolateral compartment at a final concentration of 2 µM. Before and after 2 h incubation at 37 °C, samples were taken from both compartments. Analysis of compound content was conducted after precipitation with methanol by LC/MS/MS analysis. Reference compounds were analyzed in parallel as assay control. Permeability (Papp) was calculated in the apical to basolateral (A → B) and basolateral to apical (B → A) directions. The efflux ratio basolateral (B) to apical (A) was calculated by dividing Papp B–A by Papp A–B.

[4] = tested on: EZH2; set-up: method as in Konze et al. [41]; conditions: 40-fold higher enzyme concentration; ref Konze et al. [41]; cited from earlier work
[5] = target: T1, PRC2/EZH2Y641N (Homo sapiens, UniProt Q15910, Y641N); assay: Equilibrium titration of the fluorescent probe, TR-FRET, -/+ H3K27me3 activator peptide; assay type: binding; conditions: EZH2 Y641N, 25 °C
T1 construct: Synthetic cDNA encoding N-terminal 6His-tagged full length EZH2^Y641N; 6His (N); made in house; host or cells: Sf9 insect cells (baculovirus co-infection)

[6] = target: T1, PRC2/EZH2Y641N; assay: Kinetic titration (association then dissociation) of the fluorescent probe, TR-FRET; assay type: binding; conditions: EZH2 Y641N, 25 °C; for Kinetic koff / Kinetic kon: listed as fluorescent EZH2 probe
[7] = target: T2, PRC2/EZH2+/+ (Homo sapiens, UniProt Q15910); assay: as above; assay type: binding; conditions: for Kinetic koff / Kinetic kon: listed as fluorescent EZH2 probe
T2 construct: purchased Active Motif

[8] = target: T2, PRC2/EZH2+/+; assay: Equilibrium titration of the fluorescent probe, TR-FRET, -/+ H3K27me3 activator peptide; assay type: binding

T2 sequence (Q15910 whole entry): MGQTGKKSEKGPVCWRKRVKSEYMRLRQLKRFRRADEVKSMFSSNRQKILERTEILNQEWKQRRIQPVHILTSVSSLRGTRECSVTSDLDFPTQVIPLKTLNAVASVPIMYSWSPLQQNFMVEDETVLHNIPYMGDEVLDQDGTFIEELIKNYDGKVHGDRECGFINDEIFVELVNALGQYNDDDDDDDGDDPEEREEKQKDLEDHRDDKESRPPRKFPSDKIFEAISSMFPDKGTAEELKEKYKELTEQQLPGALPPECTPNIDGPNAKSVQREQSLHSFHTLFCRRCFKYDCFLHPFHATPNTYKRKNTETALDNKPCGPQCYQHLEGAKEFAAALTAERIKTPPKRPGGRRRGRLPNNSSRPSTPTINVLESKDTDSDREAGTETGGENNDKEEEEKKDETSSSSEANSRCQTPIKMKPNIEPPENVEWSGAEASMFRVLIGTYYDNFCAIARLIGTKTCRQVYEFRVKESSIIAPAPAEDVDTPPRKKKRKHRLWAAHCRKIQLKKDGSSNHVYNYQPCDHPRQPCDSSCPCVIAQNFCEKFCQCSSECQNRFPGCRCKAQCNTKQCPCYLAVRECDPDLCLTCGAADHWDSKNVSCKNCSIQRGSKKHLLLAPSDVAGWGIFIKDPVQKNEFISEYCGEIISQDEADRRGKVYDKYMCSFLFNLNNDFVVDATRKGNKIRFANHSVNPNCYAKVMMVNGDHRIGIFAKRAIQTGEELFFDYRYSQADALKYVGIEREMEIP
T2 sequence (O75530 whole entry partner): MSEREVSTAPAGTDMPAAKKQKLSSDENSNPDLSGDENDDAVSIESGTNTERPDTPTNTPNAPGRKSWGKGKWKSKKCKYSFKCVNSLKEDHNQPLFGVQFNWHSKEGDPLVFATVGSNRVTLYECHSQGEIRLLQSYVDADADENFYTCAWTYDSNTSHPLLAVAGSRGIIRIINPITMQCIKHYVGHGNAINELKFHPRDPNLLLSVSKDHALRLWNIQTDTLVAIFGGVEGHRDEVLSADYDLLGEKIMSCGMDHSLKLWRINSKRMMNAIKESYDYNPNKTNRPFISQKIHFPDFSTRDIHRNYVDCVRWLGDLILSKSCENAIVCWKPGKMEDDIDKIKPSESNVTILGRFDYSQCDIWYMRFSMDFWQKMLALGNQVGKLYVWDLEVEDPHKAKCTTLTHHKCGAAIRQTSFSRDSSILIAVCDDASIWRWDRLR
T2 sequence (Q15022 whole entry partner): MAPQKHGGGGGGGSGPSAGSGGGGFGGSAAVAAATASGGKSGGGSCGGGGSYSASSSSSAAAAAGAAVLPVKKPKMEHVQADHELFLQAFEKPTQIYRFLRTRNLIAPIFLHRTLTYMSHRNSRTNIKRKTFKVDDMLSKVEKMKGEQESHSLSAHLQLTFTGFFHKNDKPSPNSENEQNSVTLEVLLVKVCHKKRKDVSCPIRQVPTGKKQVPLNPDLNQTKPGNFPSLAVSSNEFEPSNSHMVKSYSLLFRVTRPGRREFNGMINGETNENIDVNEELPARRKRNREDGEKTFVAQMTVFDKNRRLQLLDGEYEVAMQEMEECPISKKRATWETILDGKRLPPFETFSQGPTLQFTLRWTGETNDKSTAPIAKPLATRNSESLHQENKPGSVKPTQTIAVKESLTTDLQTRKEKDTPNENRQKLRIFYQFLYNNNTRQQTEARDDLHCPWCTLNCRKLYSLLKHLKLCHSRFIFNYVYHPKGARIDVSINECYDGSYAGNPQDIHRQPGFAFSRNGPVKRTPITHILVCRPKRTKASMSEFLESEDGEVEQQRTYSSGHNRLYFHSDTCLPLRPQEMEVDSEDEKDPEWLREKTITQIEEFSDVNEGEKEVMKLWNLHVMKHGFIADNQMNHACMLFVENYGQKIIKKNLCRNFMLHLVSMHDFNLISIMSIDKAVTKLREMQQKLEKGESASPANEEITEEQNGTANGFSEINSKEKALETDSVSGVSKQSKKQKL
T2 sequence (Q09028 whole entry partner): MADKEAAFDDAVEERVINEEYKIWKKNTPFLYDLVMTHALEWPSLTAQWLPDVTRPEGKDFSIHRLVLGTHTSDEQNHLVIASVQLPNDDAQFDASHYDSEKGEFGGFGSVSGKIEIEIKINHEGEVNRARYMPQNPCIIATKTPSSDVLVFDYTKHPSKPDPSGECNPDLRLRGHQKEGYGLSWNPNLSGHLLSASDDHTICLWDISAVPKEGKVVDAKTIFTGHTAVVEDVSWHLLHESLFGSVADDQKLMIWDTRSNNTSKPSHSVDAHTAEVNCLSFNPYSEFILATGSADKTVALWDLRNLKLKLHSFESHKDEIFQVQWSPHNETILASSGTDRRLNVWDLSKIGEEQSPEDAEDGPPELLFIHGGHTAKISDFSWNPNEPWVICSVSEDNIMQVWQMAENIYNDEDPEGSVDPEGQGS
T2 sequence (Q6ZN18 whole entry partner): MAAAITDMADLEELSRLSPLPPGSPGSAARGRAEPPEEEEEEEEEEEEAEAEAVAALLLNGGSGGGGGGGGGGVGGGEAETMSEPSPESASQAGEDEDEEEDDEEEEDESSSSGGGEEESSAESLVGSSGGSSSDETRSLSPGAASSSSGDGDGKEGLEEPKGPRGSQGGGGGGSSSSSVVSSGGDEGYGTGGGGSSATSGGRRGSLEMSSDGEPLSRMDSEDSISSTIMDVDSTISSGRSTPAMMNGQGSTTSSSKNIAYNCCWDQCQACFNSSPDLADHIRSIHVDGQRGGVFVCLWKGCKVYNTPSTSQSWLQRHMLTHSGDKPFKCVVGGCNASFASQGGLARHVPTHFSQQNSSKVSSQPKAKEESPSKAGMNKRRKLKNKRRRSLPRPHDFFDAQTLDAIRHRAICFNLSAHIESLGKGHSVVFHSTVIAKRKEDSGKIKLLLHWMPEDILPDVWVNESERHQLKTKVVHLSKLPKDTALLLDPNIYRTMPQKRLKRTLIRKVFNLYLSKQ
T1 sequence (Q15910 whole entry Y641N): as the sequence (Q15910 whole entry) above, with Y641N counted along it
T1 sequence (O75530 whole entry partner): as the sequence (O75530 whole entry partner) above
T1 sequence (Q15022 whole entry partner): as the sequence (Q15022 whole entry partner) above
T1 sequence (Q09028 whole entry partner): as the sequence (Q09028 whole entry partner) above
T1 sequence (Q6ZN18 whole entry partner): as the sequence (Q6ZN18 whole entry partner) above

With `CCS(=O)(=O)N1CCC([C@@H](C)n2c(C)c(C(=O)NCc3c(OC)cc(C)[nH]c3=O)c3ccccc32)CC1` [Compound 10, CPI-169] the “AUC (a.u.)” value [1] was 39.5 a.u, the IC50 ([1]; MDA-MB-231, H3K27 methylation HCA, incubation time 0.5 h, washout time 71.5 h, read-out: Mean IC50) was > 1.2e-05 M and the IC50 ([1]; MDA-MB-231, H3K27 methylation HCA, incubation time 2 h, washout time 70 h, read-out: Mean IC50) was > 1.2e-05 M. For the same compound, the IC50 ([1]; MDA-MB-231, H3K27 methylation HCA, incubation time 4 h, washout time 68 h, read-out: Mean IC50) was > 1.2e-05 M, the IC50 ([1]; MDA-MB-231, H3K27 methylation HCA, incubation time 24 h, washout time 48 h, read-out: Mean IC50) was > 1.2e-05 M and the IC50 ([1]; MDA-MB-231, H3K27 methylation HCA, incubation time 48 h, washout time 24 h, read-out: Mean IC50) was 3.1e-06 M. For the same compound, the IC50 [2] was 860 nM, the Papp A→B at 2 h, 2 µM [3] was 0.041 ×10⁻⁶ cm/s and the Papp B→A at 2 h, 2 µM [3] was 14.7 ×10⁻⁶ cm/s.

For UNC2239, the IC50 [4] is listed as 20 nM.

In the case of `CCN(c1cc(-c2ccc(CN3CCOCC3)cc2)cc(C(=O)NCc2c(C)cc(C)[nH]c2=O)c1C)C1CCOCC1` [Compound 3, Tazemetostat], the “AUC (a.u.)” value [1] is reported as 93.5 a.u.

For `Cc1cc(C)c(CNC(=O)c2cc(Cl)c3c(c2C)O[C@@](C)([C@H]2CC[C@H](N(C)C)CC2)O3)c(=O)[nH]1` [Compound 31, DS-3201], the “AUC (a.u.)” value [1] was 173.5 a.u, the IC50 ([1]; MDA-MB-231, read-out: Mean IC50 (M), H3K27 methylation HCA, incubation time 0.5 h, washout time 71.5 h) was 6.9e-07 M and the IC50 ([1]; MDA-MB-231, read-out: Mean IC50 (M), H3K27 methylation HCA, incubation time 1 h, washout time 71 h) was 2.3e-07 M. It also gave an IC50 ([1]; MDA-MB-231, read-out: Mean IC50 (M), H3K27 methylation HCA, incubation time 24 h, washout time 48 h) of 1.2e-07 M, an IC50 ([1]; MDA-MB-231, read-out: Mean IC50 (M), H3K27 methylation HCA, incubation time 48 h, washout time 24 h) of 3.9e-08 M and an IC50 ([1]; MDA-MB-231, read-out: Mean IC50 (M), H3K27 methylation HCA, incubation time 72 h, washout time 0 h) of 3.4e-09 M. The Papp A→B at 2 h, 2 µM [3] was 0.599 ×10⁻⁶ cm/s and the Papp B→A at 2 h, 2 µM [3] was 20.9 ×10⁻⁶ cm/s.

With `CCN(c1cc(-c2ccc(CN3CCOCC3)cc2)cc(C(=O)NCc2c(C)cc(C)[nH]c2=O)c1C)C1CCOCC1` [Compound 2, Tazemetostat] the “AUC (a.u.)” value [1] was 79.9 a.u, the Papp A→B at 2 h, 2 µM [3] was 1.18 ×10⁻⁶ cm/s and the Papp B→A at 2 h, 2 µM [3] was 28.1 ×10⁻⁶ cm/s.

For `CCCc1cc(C)[nH]c(=O)c1CNC(=O)c1cc(-c2ccc(N3CCN(CCCCCCNC(=O)CCCCCN4\C(=C/C=C/C=C/C5=[N+](CCOC)c6ccc(S(=O)(=O)O)cc6C5(C)C)C(C)(C)c5cc(S(=O)(=O)O)ccc54)CC3)nc2)cc2c1cnn2C(C)C.O=C(O)C(F)(F)F.O=C([O-])C(F)(F)F` [fluorescent probe, 2-[(1E,3E)-5-[(2Z)-3,3-dimethyl-1-{5-[(6-{4-[5-(4-{[(6-methyl-2-oxo-4-propyl-1,2-dihydropyridin-3-yl)methyl]carbamoyl}-1-(propan-2-yl)-1H-indazol-6-yl)pyridin-2-yl]piperazin-1-yl}hexyl)carbamoyl]pentyl}-5-sulfo-2,3-dihydro-1H-indol-2-ylidene]penta-1,3-dien-1-yl]-1-(2-methoxyethyl)-3,3-dimethyl-5-sulfo-3H-indol-1-ium trifluoroacetic acid trifluoroacetate], the Kd ([5]; with H3K27me3 (AP)) was 2.7 nM and 2.72 nM, the Kd ([5]; without H3K27me3 (AP)) was 9.56 nM and the Kd ([6]; with AP) was 3.8 nM and 3.76 nM. For the same compound, the koff ([6]; with AP) was 0.0035 s⁻¹, the kon ([6]; with AP) was 1e+06 M⁻¹ s⁻¹ and the Kinetic koff ([6]; with AP) was 0.00345 s⁻¹. For the same compound, the Kinetic kon ([6]; with AP) was 1.01e+06 M⁻¹ s⁻¹, the Kd ([6]; without AP) was 27 nM and the koff ([6]; without AP) was 0.018 s⁻¹. The kon ([6]; without AP) was 680000 M⁻¹ s⁻¹, the Kinetic koff ([6]; without AP) was 0.0177 s⁻¹ and the Kinetic kon ([6]; without AP) was 679000 M⁻¹ s⁻¹. For the same compound, the Kd ([7]; with AP, 25 °C) was 0.65 nM and 0.653 nM, the koff ([7]; with AP, 25 °C) was 0.00073 s⁻¹ and the kon ([7]; with AP, 25 °C) was 1.2e+06 M⁻¹ s⁻¹. It also gave a Kinetic koff ([7]; with AP, 25 °C) of 0.000728 s⁻¹, a Kinetic kon ([7]; with AP, 25 °C) of 1.16e+06 M⁻¹ s⁻¹ and a Kd ([7]; without AP, 5 °C) of 1.16 nM. For the same compound, the koff ([7]; without AP, 5 °C) was 0.000177 s⁻¹, the kon ([7]; without AP, 5 °C) was 152000 M⁻¹ s⁻¹ and the Kd ([7]; without AP, 15 °C) was 0.53 nM. The koff ([7]; without AP, 15 °C) was 0.000505 s⁻¹, the kon ([7]; without AP, 15 °C) was 953000 M⁻¹ s⁻¹ and the Kd ([7]; without AP, 25 °C) was 1.4 nM and 1.43 nM. It also gave a koff ([7]; without AP, 25 °C) of 0.0027 s⁻¹, a kon ([7]; without AP, 25 °C) of 2e+06 M⁻¹ s⁻¹ and a Kinetic koff ([7]; without AP, 25 °C) of 0.00273 s⁻¹. It also gave a Kinetic kon ([7]; without AP, 25 °C) of 1.96e+06 M⁻¹ s⁻¹, a Kd ([7]; without AP, 30 °C) of 5.98 nM and a koff ([7]; without AP, 30 °C) of 0.0051 s⁻¹. The kon ([7]; without AP, 30 °C) was 853000 M⁻¹ s⁻¹, the Kd ([7]; without AP, 37 °C) was 3.71 nM and the koff ([7]; without AP, 37 °C) was 0.00823 s⁻¹. The kon ([7]; without AP, 37 °C) was 2.22e+06 M⁻¹ s⁻¹, the Kd ([8]; EZH2+/+, with H3K27me3 (AP), 25 °C, read-out: Equilibrium KD) was 0.39 nM and 0.393 nM and the Kd ([8]; EZH2+/+, without H3K27me3 (AP), 25 °C, read-out: Equilibrium KD) was 1.13 nM. The Kd ([8]; wild type EZH2, absence of H3K27me3 peptide, read-out: affinity in equilibrium conditions) was 1.1 ± 0.2 nM and the Kd ([8]; wild type EZH2, saturating concentrations of H3K27me3 peptide, read-out: affinity in equilibrium conditions) was 0.4 ± 0.01 nM.
